Here are results for 6 compounds from ChEMBL document CHEMBL5724914, “Linking interpersonal differences in gut microbiota composition and drug biotransformation activity” (2024).

The conditions of data set [1]: human gut metagenome, 24 h, 2 µM.
Data set [2] in a line: The drug is tested on Z-001 corresponding to mouse gut metagenome with ENA study accession number: PRJEB37062 and ENA sample accession number: ERS12561801 for biotransformation under anaerobic condition. The drug concentrations were measured over 9 timepoints collected between 0 and 24 hours of incubation by liquid-chromatography-coupled mass spectrometry (LC–MS). The conditions noted are these: 2 µM.

The conditions of data set [3]: human gut metagenome, 24 h, 2 µM. This is another data set of the same source.
Data set [4] is described as follows: The drug is tested on Z-002 corresponding to rabbit gut metagenome with ENA study accession number: PRJEB37062 and ENA sample accession number: ERS12561802 for biotransformation under anaerobic condition. The drug concentrations were measured over 9 timepoints collected between 0 and 24 hours of incubation by liquid-chromatography-coupled mass spectrometry (LC–MS). The conditions noted are these: 2 µM.

Data set [5] is described as follows: The drug is tested on Z-020 corresponding to rabbit gut metagenome with ENA study accession number: PRJEB37062 and ENA sample accession number: ERS12561819 for biotransformation under anaerobic condition. The drug concentrations were measured over 9 timepoints collected between 0 and 24 hours of incubation by liquid-chromatography-coupled mass spectrometry (LC–MS). As to conditions: 2 µM.

For data set [6] the following is noted: human gut metagenome, 24 h, 2 µM. The source holds these as a separate data set.
A short description of data set [7]: The drug is tested on WLS-007 corresponding to human gut metagenome with ENA study accession number: PRJEB37062 and ENA sample accession number: ERS12561742 for biotransformation under anaerobic condition. The drug concentrations were measured over 9 timepoints collected between 0 and 24 hours of incubation by liquid-chromatography-coupled mass spectrometry (LC–MS). The conditions noted are these: 2 µM.

The conditions of data set [8]: human gut metagenome, 24 h, 2 µM. The source holds these as a separate data set.
Data set [9] is described as follows: The drug is tested on Z-007 corresponding to rat gut metagenome with ENA study accession number: PRJEB37062 and ENA sample accession number: ERS12561807 for biotransformation under anaerobic condition. The drug concentrations were measured over 9 timepoints collected between 0 and 24 hours of incubation by liquid-chromatography-coupled mass spectrometry (LC–MS). As to conditions: 2 µM.

Data set [10] can be described thus: The drug is tested on WLS-073 corresponding to human gut metagenome with ENA study accession number: PRJEB37062 and ENA sample accession number: ERS12561749 for biotransformation under anaerobic condition. The drug concentrations were measured over 9 timepoints collected between 0 and 24 hours of incubation by liquid-chromatography-coupled mass spectrometry (LC–MS). As to conditions: 2 µM.

For data set [11] the following is noted: human gut metagenome, 24 h, 2 µM. The source holds these as a separate data set.
Data set [12] in a line: The drug is tested on WLS-069 corresponding to human gut metagenome with ENA study accession number: PRJEB37062 and ENA sample accession number: ERS12561748 for biotransformation under anaerobic condition. The drug concentrations were measured over 9 timepoints collected between 0 and 24 hours of incubation by liquid-chromatography-coupled mass spectrometry (LC–MS). As to conditions: 2 µM.

A short description of data set [13]: The drug is tested on Z-027 corresponding to metagenome with ENA study accession number: PRJEB37062 and ENA sample accession number: ERS12561826 for biotransformation under anaerobic condition. The drug concentrations were measured over 9 timepoints collected between 0 and 24 hours of incubation by liquid-chromatography-coupled mass spectrometry (LC–MS). As to conditions: 2 µM.

The nature of data set [14]: The drug is tested on Z-019 corresponding to rat gut metagenome with ENA study accession number: PRJEB37062 and ENA sample accession number: ERS12561818 for biotransformation under anaerobic condition. The drug concentrations were measured over 9 timepoints collected between 0 and 24 hours of incubation by liquid-chromatography-coupled mass spectrometry (LC–MS). As to conditions: 2 µM.

The conditions of data set [15]: human gut metagenome, 24 h, 2 µM. The source holds these as a separate data set.
The conditions of data set [16]: human gut metagenome, 24 h, 2 µM. This is another data set of the same source.
The nature of data set [17]: The drug is tested on WLS-098 corresponding to human gut metagenome with ENA study accession number: PRJEB37062 and ENA sample accession number: ERS12561754 for biotransformation under anaerobic condition. The drug concentrations were measured over 9 timepoints collected between 0 and 24 hours of incubation by liquid-chromatography-coupled mass spectrometry (LC–MS). As to conditions: 2 µM.

For data set [18] the following is noted: human gut metagenome, 24 h, 2 µM. This is another data set of the same source.
Data set [19] in a line: The drug is tested on Z-005 corresponding to metagenome with ENA study accession number: PRJEB37062 and ENA sample accession number: ERS12561805 for biotransformation under anaerobic condition. The drug concentrations were measured over 9 timepoints collected between 0 and 24 hours of incubation by liquid-chromatography-coupled mass spectrometry (LC–MS). The conditions noted are these: 2 µM.

A short description of data set [20]: The drug is tested on Z-030 corresponding to mouse gut metagenome with ENA study accession number: PRJEB37062 and ENA sample accession number: ERS12561829 for biotransformation under anaerobic condition. The drug concentrations were measured over 9 timepoints collected between 0 and 24 hours of incubation by liquid-chromatography-coupled mass spectrometry (LC–MS). The conditions noted are these: 2 µM.
Further: call rule not given here.

As for `CCCc1nc2c(C)cc(-c3nc4ccccc4n3C)cc2n1Cc1ccc(-c2ccccc2C(=O)O)cc1`, the “Bacterial Biotransformation” value in [1], in data set [2], in data set [3], in data set [4], in data set [5] and in data set [6] was “Compound metabolized” each time. For the same compound, the “Bacterial Biotransformation” value in data set [7], in [8], in data set [9], in data set [10], in data set [11] and in data set [12] was “Compound metabolized” each time. For the same compound, the “Bacterial Biotransformation” value in data set [13] is listed as “Compound metabolized”; in data set [14], “Compound NOT metabolized”; in data set [15] it was “Compound metabolized”; in [16], “Compound metabolized”; in data set [17], “Compound metabolized”; in [18], “Compound metabolized”. The “Bacterial Biotransformation” value in [19] is given as “Compound metabolized”; in data set [20], “Compound NOT metabolized”.
As for `CCCCC(=O)N(Cc1ccc(-c2ccccc2-c2nnn[nH]2)cc1)[C@H](C(=O)O)C(C)C`, the “Bacterial Biotransformation” value in data set [1] is “Compound NOT metabolized”; in data set [2] it was “Compound NOT metabolized”; in data set [3] it was “Compound metabolized”; in data set [4], “Compound NOT metabolized”; in data set [5], “Compound NOT metabolized”; in data set [6], “Compound metabolized”. The “Bacterial Biotransformation” value in [7] is given as “Compound metabolized”; in [8] it was “Compound metabolized”; in [9], “Compound NOT metabolized”; in data set [10], “Compound NOT metabolized”; in data set [11], “Compound metabolized”; in data set [12], “Compound metabolized”. The “Bacterial Biotransformation” value in data set [13] was “Compound NOT metabolized”; in data set [14] it was “Compound NOT metabolized”; in data set [15], “Compound metabolized”; in [16], “Compound metabolized”; in data set [17], “Compound metabolized”; in [18] it was “Compound metabolized”. In addition, the “Bacterial Biotransformation” value in data set [19] and in data set [20] was “Compound NOT metabolized” in each case.
Consider `CCC(COC(=O)c1cc(OC)c(OC)c(OC)c1)(c1ccccc1)N(C)C.O=C(O)/C=C\C(=O)O` (centres undefined), for which the “Bacterial Biotransformation” value is given as “Compound NOT metabolized” in [1]; “Compound NOT metabolized” in data set [2]; “Compound NOT metabolized” in [3]; “Compound NOT metabolized” in [4]; “Compound metabolized” in data set [5]; “Compound metabolized” in [6]. For the same compound, the “Bacterial Biotransformation” value in data set [7] is “Compound NOT metabolized”; in data set [8], “Compound NOT metabolized”; in [9] it was “Compound NOT metabolized”; in [10], “Compound NOT metabolized”; in data set [11], “Compound metabolized”; in data set [12] it was “Compound metabolized”. The “Bacterial Biotransformation” value in [13] is on record as “Compound NOT metabolized”; in data set [14], “Compound NOT metabolized”; in [15], “Compound metabolized”; in data set [16], “Compound metabolized”; in data set [17], “Compound NOT metabolized”; in [18], “Compound NOT metabolized”. Moreover, the “Bacterial Biotransformation” value in [19] and in data set [20] was “Compound NOT metabolized” in each case.
Consider `COc1ccc(CCN(C)CCCC(C#N)(c2ccc(OC)c(OC)c2)C(C)C)cc1OC` (centres undefined), for which the “Bacterial Biotransformation” value in data set [1] was “Compound NOT metabolized”; in data set [2], “Compound NOT metabolized”; in data set [3], “Compound NOT metabolized”; in [4], “Compound metabolized”; in [5], “Compound metabolized”; in [6], “Compound metabolized”. Further, the “Bacterial Biotransformation” value in data set [7] was “Compound metabolized”; in data set [8] it was “Compound NOT metabolized”; in data set [9], “Compound NOT metabolized”; in data set [10], “Compound metabolized”; in [11] it was “Compound metabolized”; in [12], “Compound metabolized”. In addition, the “Bacterial Biotransformation” value is given as “Compound NOT metabolized” in data set [13]; “Compound NOT metabolized” in data set [14]; “Compound metabolized” in data set [15]; “Compound metabolized” in data set [16]; “Compound metabolized” in data set [17]; “Compound metabolized” in data set [18]. The “Bacterial Biotransformation” value in data set [19] is given as “Compound metabolized”; in [20], “Compound NOT metabolized”.
For the compound `CN1CC(=O)N2[C@H](c3ccc4c(c3)OCO4)c3[nH]c4ccccc4c3C[C@@H]2C1=O`, the “Bacterial Biotransformation” value in data set [1] is on record as “Compound NOT metabolized”; in data set [2], “Compound NOT metabolized”; in data set [3] it was “Compound metabolized”; in data set [4], “Compound metabolized”; in data set [5], “Compound NOT metabolized”; in data set [6], “Compound metabolized”. The “Bacterial Biotransformation” value in data set [7] is recorded as “Compound metabolized”; in data set [8], “Compound metabolized”; in [9], “Compound NOT metabolized”; in [10] it was “Compound NOT metabolized”; in [11] it was “Compound metabolized”; in data set [12], “Compound metabolized”. The “Bacterial Biotransformation” value in data set [13] is listed as “Compound NOT metabolized”; in [14], “Compound NOT metabolized”; in data set [15] it was “Compound metabolized”; in data set [16], “Compound metabolized”; in data set [17], “Compound metabolized”; in [18] it was “Compound metabolized”. The “Bacterial Biotransformation” value in data set [19] and in data set [20] was “Compound NOT metabolized” throughout.
With `COc1cc2nc(N3CCN(C(=O)c4ccco4)CC3)nc(N)c2cc1OC` [PRAZOSIN], the “Bacterial Biotransformation” value is recorded as “Compound NOT metabolized” in data set [1]; “Compound NOT metabolized” in data set [2]; “Compound metabolized” in [3]; “Compound NOT metabolized” in [4]; “Compound NOT metabolized” in [5]; “Compound metabolized” in data set [6]. The “Bacterial Biotransformation” value is “Compound NOT metabolized” in data set [7]; “Compound NOT metabolized” in [8]; “Compound NOT metabolized” in data set [9]; “Compound metabolized” in [10]; “Compound metabolized” in data set [11]; “Compound NOT metabolized” in data set [13]. Moreover, the “Bacterial Biotransformation” value is listed as “Compound NOT metabolized” in data set [14]; “Compound metabolized” in data set [15]; “Compound metabolized” in data set [16]; “Compound metabolized” in data set [17]; “Compound NOT metabolized” in [18]; “Compound NOT metabolized” in [19]. For the same compound, the “Bacterial Biotransformation” value in data set [20] is listed as “Compound NOT metabolized”.
